Patent US20100029622A1, “MICROEMULSIONS” (NEUROSCIENZE PHARMANESS S.C.A.R.L., priority 2008, published 2010)

Experiments:
[1] = biological target: T1, opioidergic receptors δ (Mus musculus, UniProt P32300); assay: Radioreceptorial binding, receptors δ ([3H]-DPDPE displacement, brain membranes); design: species or system mice; conditions: 1 nM [3H]-DPDPE, 25° C.
T1 construct: from tissue; host or cells: CD1 mouse total brain (excluding the cerebellum) membranes

[2] = biological target: T2, opioidergic receptors k (Mus musculus, UniProt P33534); assay: Radioreceptorial binding, receptors k (3H-U 69.593, brain membranes); design: species or system mice; conditions: 3H-U 69.593, 25° C.
T2 construct: the complete brain (excluding the cerebellum) was quickly dissected and kept in ice; from tissue; host or cells: CD1 mouse complete brain (excluding the cerebellum) homogenate/membranes
T2 sequence (P33534 whole entry): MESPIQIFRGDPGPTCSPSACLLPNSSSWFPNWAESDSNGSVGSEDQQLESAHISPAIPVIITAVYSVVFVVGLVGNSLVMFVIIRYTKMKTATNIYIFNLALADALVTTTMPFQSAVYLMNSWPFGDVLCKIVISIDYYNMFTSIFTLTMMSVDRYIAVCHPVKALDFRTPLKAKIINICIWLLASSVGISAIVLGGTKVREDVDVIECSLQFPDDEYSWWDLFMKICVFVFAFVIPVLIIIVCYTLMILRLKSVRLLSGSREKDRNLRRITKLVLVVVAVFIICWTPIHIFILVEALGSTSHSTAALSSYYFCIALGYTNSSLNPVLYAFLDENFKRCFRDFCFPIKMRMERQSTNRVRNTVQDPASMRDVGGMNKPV
Description: The affinity of the compounds synthesized in the preceding examples towards the opioidergic receptors μ, δ, k has been evaluated in vitro by radioreceptorial binding studies by using the method reported hereinunder.
The experimentation has been carried out according to the guide lines of the European Community for the animal experimentation (EEC n. 86/609), by using laboratory animals (male mices CD1 Charles River Italy, Calco, LC, Italy) lodged twenty in a cage, under standard stabulation conditions (temperature 22±2° C., relative humidity 60%, artificial light with a light/dark cycle of 12 hours). The food and water were at disposal ad libitum.
Receptors k: CD1 male mice weighing 20-25 g were used. The animals were sacrificed by cervical dislocation and the complete brain (excluding the cerebellum) was quickly dissected and kept in ice. The tissue was homogeneized in 40 volumes (w/v) of Tris-HCl buffer (50 mM, pH 7.4) by an Ultra-Turrax, then centrifuged for 20 minutes at 48,000×g in a centrifuge kept at 4° C. The resulting […] was suspended again in the same buffer and incubated at 37° C. for 30 minutes in a bath kept under oscillation. At the end of the incubation the suspension was centrifuged 48,000×g for 15 minutes and the pellets suspended again in 10 volumes of the Tris-HCl buffer. The binding experiment was carried out in a volume of 1 ml at the temperature of 25° C. with about 800-1000 μg of proteins for sample. The incubation was carried out for 60 minutes in the,presence of different concentrations of the ligand ^3H-U 69.593 (41.7 Ci/mmole). The non specific binding was determined in the presence of U69593 (10 μM). The incubation was stopped by quick filtering by means of a filtration instrument (Brandell®, Gaithersburg, Md., USA) by using GF/C filters (Whatman®).
The radioactivity was determined by a scintillator in liquid phase (Tricarb® 2100, Packard, Meridien, Ill., USA), by using three ml of scintillating fluid (Ultima Cold MV, Packard, Meridien, Ill., USA).
The protein determination was carried out by the Bradford method (1976) by using the protocol and the reactants supplied by Bio-Rad (Milano, Italy).
The affinity of the compounds towards the receptors μ, δ, κ has been expressed in Ki terms.

[3] = biological target: T3, opioidergic receptors μ (Mus musculus, UniProt P42866); assay: Radioreceptorial binding, receptors μ ([3H]-DAMGO displacement, brain membranes); design: species or system mice; conditions: 1 nM [3H]-DAMGO, 25° C.
T3 construct: from tissue; host or cells: CD1 mouse total brain (excluding the cerebellum) membranes
T3 sequence (P42866 whole entry): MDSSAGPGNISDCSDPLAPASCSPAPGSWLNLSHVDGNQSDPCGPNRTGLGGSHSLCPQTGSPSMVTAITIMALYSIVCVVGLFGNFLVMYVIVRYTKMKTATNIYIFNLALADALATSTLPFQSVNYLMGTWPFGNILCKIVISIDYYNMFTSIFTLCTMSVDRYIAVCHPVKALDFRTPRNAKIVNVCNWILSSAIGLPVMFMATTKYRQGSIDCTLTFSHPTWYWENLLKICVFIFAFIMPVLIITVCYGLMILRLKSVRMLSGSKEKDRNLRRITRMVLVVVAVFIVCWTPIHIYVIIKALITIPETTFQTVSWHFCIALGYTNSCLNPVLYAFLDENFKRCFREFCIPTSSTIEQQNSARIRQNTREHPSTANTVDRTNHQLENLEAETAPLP

T1 sequence (P32300 whole entry): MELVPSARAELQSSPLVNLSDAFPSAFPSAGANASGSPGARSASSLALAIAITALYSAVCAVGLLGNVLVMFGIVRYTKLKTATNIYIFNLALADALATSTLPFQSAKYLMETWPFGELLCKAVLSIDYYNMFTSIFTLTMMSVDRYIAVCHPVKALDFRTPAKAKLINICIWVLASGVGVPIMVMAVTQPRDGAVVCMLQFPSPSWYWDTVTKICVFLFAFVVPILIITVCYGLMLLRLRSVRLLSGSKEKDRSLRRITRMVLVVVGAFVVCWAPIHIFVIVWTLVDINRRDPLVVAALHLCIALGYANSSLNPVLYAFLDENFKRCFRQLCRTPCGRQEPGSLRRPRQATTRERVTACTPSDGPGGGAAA

Row | Structure (SMILES) | melting point [°C] | Ki [1] [nM] | Ki [2] [nM] | Ki [3] [nM]
1 | CCC(=O)N1CCC2CCC(C1)N2C/C=C(\C)c1ccc(Cl)c(Cl)c1 (stereo not drawn) [I-Ab] | 188 to 189 | 867 ± 44 | 100 ± 5 | 7 ± 1.5
2 | CCC(=O)N1C2CCC1CN(C/C=C(\C)c1ccc(Cl)c(Cl)c1)CC2 (stereo not drawn) [I-Bb] | 186 to 188 | 850 ± 58 | 393 ± 23 | 4.1 ± 0.35
3 | CCC(=O)N1C2CCCC1CN(C/C=C(\C)c1ccccc1)CC2 (stereo not drawn) [I-Da] | 144 to 146 | 3870 ± 125 | 1470 ± 317 | 40 ± 2.8
4 | CCC(=O)N1CCC2CCC(C1)N2C/C=C(\C)c1ccccc1 (stereo not drawn) [I-Aa] | 230 to 232 | 425 ± 25 | 55 ± 25 | 5.7 ± 1
5 | CCC(=O)N1CCC2CCCC(C1)N2C/C=C(\C)c1ccc(Cl)c(Cl)c1 (stereo not drawn) [I-Cb] | 184 to 185 | 1120 ± 216 | 425 ± 38 | 4.25 ± 0.3
6 | CCC(=O)N1C2CCCC1CN(CC=C(c1ccccc1)c1ccccc1)CC2 (stereo not drawn) [I-Dc] | 169 to 170 | 1690 ± 312 | 1930 ± 233 | 23.3 ± 1.6
7 | CCC(=O)N1C2CCC1CN(C/C=C(\C)c1ccccc1)CC2 (stereo not drawn) [I-Ba] | 228 to 230 | 933 ± 33 | 900 ± 100 | 8.3 ± 1.2
8 | CCC(=O)N1CCC2CCCC(C1)N2C/C=C(\C)c1ccccc1 (stereo not drawn) [I-Ca] | 106 to 108 | 1670 ± 166 | 410 ± 10 | 17 ± 1.3
9 | CCC(=O)N1CCC2CCC(C1)N2CC=C(c1ccccc1)c1ccccc1 (stereo not drawn) [I-Ad] | 176 to 177 | 142 ± 25 | 103 ± 7 | 10.7 ± 0.3
10 | CCC(=O)N1CCC2CCCC(C1)N2CC=C(c1ccccc1)c1ccccc1 (stereo not drawn) [I-Cc] | 137 to 139 | 187 ± 29.7 | 40 ± 0.1 | 3.16 ± 0.6
11 | CCC(=O)N1C2CCC1CN(CC=C(c1ccccc1)c1ccccc1)CC2 (stereo not drawn) [I-Bd] | 184 to 186 | 333 ± 5 | 1130 ± 186 | 20.7 ± 2.33
12 | CCC(=O)N1C2CCCC1CN(C/C=C(\C)c1ccc(Cl)c(Cl)c1)CC2 (stereo not drawn) [I-Db] | 175 to 176 | 3250 ± 166 | 1170 ± 120 | 17.5 ± 1.4
